Measurements: patent US7998972B2, “1H-imidazo[4,5-c]quinoline derivatives in the treatment of protein kinase dependent diseases” (Novartis AG, priority 2002, dated 2011)
Structures can show the parent of a compound that is named as a salt.

system: not given; assay: not given; conditions: not given

melting point [°C] | SMILES
249 to 251 | N/C(=N\O)c1ccccc1-n1cnc2cnc3ccc(-c4ccccc4)cc3c21 [Example 67, N-Hydroxy-2-(8-phenyl-imidazo[4,5-c]quinolin-1-yl)-benzamidine]
253 to 254 | N/C(Cc1ccccc1-n1cnc2cnc3ccc(-c4ccccc4)cc3c21)=N/O [Example 68, N-Hydroxy-2-[2-(8-phenyl-imidazo[4,5-c]quinolin-1-yl)-phenyl]-acetamidine]
273 to 274 | Fc1ccc(-n2cnc3cnc4cc(Cl)ccc4c32)cc1 [Example 15, 7-Chloro-1-(4-fluoro-phenyl)-1H-imidazo[4,5-c]quinoline]
148 to 149 | NCc1cccc(-n2cnc3cnc4ccc(Cl)cc4c32)c1 [Example 42, 3-(8-Chloro-imidazo[4,5-c]quinolin-1-yl)-benzylamine]
284 to 285 | N=C(N)c1ccccc1-n1cnc2cnc3ccc(-c4ccccc4)cc3c21 [Example 69, 2-(8-Phenyl-imidazo-4,5-quinolin-1-yl)-benzamidine]
114 | N/C(Cc1nc2cnc3ccc(Cl)cc3c2n1-c1ccccc1Cl)=N/O (as salt: sodium) [Example 87, 2-[8-Chloro-1-(2-chloro-phenyl)-1H-imidazo[4,5-c]quinolin-2-yl]-N-hydroxy-acetamidine]
140 to 141 | NCCc1ccc(-n2cnc3cnc4ccc(Cl)cc4c32)cc1 [Example 43, 2-[4-(8-Chloro-imidazo[4,5-c]quinolin-1-yl)-phenyl]-ethylamine]
262 to 263 | Nc1nc2ccc(Cl)cc2c2c1ncn2-c1ccccc1Cl [Example 73, 8-Chloro-1-(2-chloro-phenyl)-1H-imidazo[4,5c]-quinolin-4-ylamine]
248 to 250 | N#Cc1nc2ccc(Cl)cc2c2c1ncn2-c1ccccc1Cl [Example 74, 8-Chloro-1-(2-chloro-phenyl)-1H-imidazo[4,5-c]quinoline-4-carbonitrile]
161 to 162 | Fc1ccc(-n2cnc3cnc4ccccc4c32)cc1 [Example 1, 1-(4-Fluoro-phenyl)-1H-imidazo[4,5-c]quinoline]
242 to 244 | N#Cc1nc2cnc3ccc(Cl)cc3c2n1-c1ccccc1Cl [Example 84, 8-Chloro-1-(2-chloro-phenyl)-1H-imidazo[4,5-c]quinoline-2-carbonitrile]

The next lines start with the compound.

SMILES | melting point [°C]
Fc1ccc2ncc3ncn(-c4ccccc4F)c3c2c1 [Example 19, 8-Fluoro-1-(2-fluoro-phenyl)-1H-imidazo[4,5-c]quinoline] | 162 to 163
Clc1ccc2nc(Cl)c3ncn(-c4ccccc4Cl)c3c2c1 [Example 75, 4,8-Dichloro-1-(2-chloro-phenyl)-1H-imidazo[4,5-c]quinoline] | 194 to 200
O=C(Nc1nc2ccc(Cl)cc2c2c1ncn2-c1ccccc1Cl)c1ccccc1 [Example 72, N-[8-Chloro-1-(2-chloro-phenyl)-1H-imidazo[4,5-c]quinolin-4-yl]-benzamide] | 255 to 258
Cc1nc2cnc3ccc(Cl)cc3c2n1-c1ccccc1Cl [Example 136, 8-Chloro-1-(2-chloro-phenyl)-2-methyl-1H-imidazo[4,5-c]quinoline] | 177.5
Brc1ccccc1-n1cnc2cnc3ccc(-c4ccccc4)cc3c21 [Example 53, 1-(2-Bromo-phenyl)-8-Phenyl-1H-imidazo[4,5-c]quinoline] | 128 to 129
[O-][n+]1cc2ncn(-c3ccccc3Cl)c2c2cc(Cl)ccc21 [Example 71, 8-Chloro-1-(2-chloro-phenyl)-1H-imidazo[4,5-c]quinoline 5-oxide] | 247 to 250
COc1ccc2ncc3ncn(-c4ccccc4Cl)c3c2c1 [Example 44, 1-(2-Chloro-phenyl)-8-methoxy-1H-imidazo[4,5-c]quinoline] | 202 to 205
CCc1ccc2ncc3ncn(-c4ccccc4Cl)c3c2c1 [Example 49, 1-(2-Chloro-phenyl)-ethyl-1H-imidazo[4,5-c]quinoline] | 156 to 158
N=C(N)Cc1ccccc1-n1cnc2cnc3ccc(-c4ccccc4)cc3c21 [Example 70, 2-[2-(8-Phenyl-imidazo[4,5-c]quinolin-1-yl)-phenyl]-acetamidine] | 261 to 263
N/C(=N\O)c1nc2cnc3ccc(Cl)cc3c2n1-c1ccccc1Cl [Example 86, 8-Chloro-1-(2-chloro-phenyl)-N-hydroxy-1H-imidazo[4,5-c]quinoline-2-carboxamidine] | 265 to 267
Clc1ccc2ncc3ncn(-c4ccccc4)c3c2c1 [Example 23, 8-Chloro-1-phenyl-1H-imidazo[4,5-c]quinoline] | 240 to 242
Clc1ccc2ncc3nc(Br)n(-c4ccccc4Cl)c3c2c1 [Example 82, 2-Bromo-8-chloro-1-(2-chloro-phenyl)-1H-imidazo[4,5-c]quinoline] | 183 to 192
NC(=O)c1nc2cnc3ccc(Cl)cc3c2n1-c1ccccc1Cl [Example 83, 8-Chloro-1-(2-chloro-phenyl)-1H-imidazo[4,5-c]quinoline-2-carboxylic acid amide] | 194 to 195
CNc1nc2ccc(Cl)cc2c2c1ncn2-c1ccccc1Cl [Example 76, [8-Chloro-1-(2-chloro-phenyl)-1H-imidazo[4,5-c]quinolin-4-yl]-methyl-amine] | 210 to 212

molecular target: T1, c-Met (Homo sapiens, UniProt P08581); assay: Inhibition of c-Met kinase (33P-ATP filter assay); type: biochemical; conditions: GST-c-Met cytoplasmic domain, poly(EY) substrate; read-out: IC50 range class, inhibition of c-Met
T1 construct: c-Met cytoplasmic domain (amino acids 969 to C-terminus); made in house; host or cells: baculovirus / Sf9 cells
T1 sequence (P08581 969-1390 limits assumed): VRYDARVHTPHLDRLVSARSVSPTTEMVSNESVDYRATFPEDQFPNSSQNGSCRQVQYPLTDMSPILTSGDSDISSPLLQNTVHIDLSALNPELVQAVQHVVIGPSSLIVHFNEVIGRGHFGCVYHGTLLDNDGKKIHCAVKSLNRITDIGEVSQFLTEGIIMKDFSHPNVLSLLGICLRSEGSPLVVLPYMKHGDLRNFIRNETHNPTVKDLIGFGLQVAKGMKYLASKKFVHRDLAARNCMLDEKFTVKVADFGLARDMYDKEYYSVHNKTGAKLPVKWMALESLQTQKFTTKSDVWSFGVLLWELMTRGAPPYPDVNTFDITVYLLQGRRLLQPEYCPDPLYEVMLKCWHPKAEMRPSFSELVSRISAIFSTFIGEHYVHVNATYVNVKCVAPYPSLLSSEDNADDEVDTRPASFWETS
Text: Compounds of the formula I, for example, are able to inhibit c-Met kinase as mentioned already in the introduction. Using the sequence disclosed by Chan et al. (see Chan, A M-L, King H W S, Tempest P R, Deakin E A, Cooper C S, Brookes P. Primary structure of the met protein tyrosine kinase domain. Oncogene 1987; 12:229-233), a construct with this sequence, after hooking to a GST tag, was cloned into baculovirus and expressed in Sf9 cells. After partial purification by affinity chromatography on GST agarose resulting in a >90% pure preparation (SDS-PAGE), the kinase activity of this construct is used for inhibition assays using the compounds of formula I. The quality of the purified kinase preparations is highly reproducible: 9 batches of c-Met gives an average specific activity of 32.3±5.7 nmol/mg·min.
For inhibition studies, the following experimental protocol is used:
In vitro protein kinase assays are performed in 96-well plates. The amount of enzyme used in kinase assays and the incubation time for the kinase reaction are adjusted so that maximally 25% (in routine experiments <10%) of the substrate ATP are consumed.
Test compounds of the formula I are first dissolved in DMSO at a concentration of 1-10 mM (stock solution) and then further diluted with water/3% DMSO as required so that the final DMSO concentration in the assay is 1%.
The assay components are mixed in the following order: • 10 μl 3×compound (in 3% DMSO) • 10 μl 3×assay mix (MgCl2/MnCl2/ATP/^33P-ATP/poly(EY)) • 10 μl 3×enzyme dilution
Assays are incubated for 15 min (in special cases up to 60 min) at ambient temperature, reactions terminated by addition of 10 μl 0.25 M EDTA pH 7, then 20 μl transferred to a Millipore Immobilon^P membrane (previously soaked for 5 min with methanol, rinsed with water, then soaked for 5 min with 0.5% H3PO4 and mounted on vacuum manifold) with disconnected vacuum source. After spotting all samples, vacuum is connected and each well rinsed with 200 μl 0.5% H3PO4. Membranes are removed and washed 4× on shaker with 0.5% H3PO4, once with methanol. Membranes are counted after drying at ambient temperature, mounting in Packard TopCount 96-well frame, and addition of 10 μl/well of the scintillator Microscint™ (Packard).
IC50 values are calculated by logarithmic regression analysis of the percentage inhibition of each compound at 4 concentrations (usually 3- or 10-fold dilution series starting at 10 μM). In each experiment, the actual inhibition by reference compound is used for normalization of IC50 values to the basis of an average value of the reference inhibitor: Normalized IC50=measured IC50·average ref. IC50/measured ref. IC50 Example: • Reference inhibitor in experiment 0.4 μM, average 0.3 μM • Test compound in experiment 1.0 μM, normalization: 1.0·0.3/0.4=0.75 μM
For example, staurosporine or a synthetic staurosporine derivative are used as reference compounds.

IC50 [nM] | SMILES
≤ 500 | N=C(N)Cc1nc2cnc3ccc(Cl)cc3c2n1-c1ccccc1Cl [Example 88, 2-[8-Chloro-1-(2-chloro-phenyl)-1H-imidazo[4,5-c]quinolin-2-yl]-acetamidine]
1000 to 2000 | O=c1n(-c2cccc(Cl)c2)c2cnc3ccc(Br)cc3c2n1-c1ccccc1Cl [Example 102, 8-Bromo-1-(2-chloro-phenyl)-3-(3-chloro-phenyl)-1,3-dihydro-imidazo[4,5-c]quinolin-2-one]
500 to 1000 | N/C(Cc1nc2cnc3ccc(Cl)cc3c2n1-c1ccccc1Cl)=N/O [Example 87, 2-[8-Chloro-1-(2-chloro-phenyl)-1H-imidazo[4,5-c]quinolin-2-yl]-N-hydroxy-acetamidine]
≤ 500 | O=c1n(Cc2ccoc2)c2cnc3ccc(Cl)cc3c2n1-c1ccccc1Cl [Example 133, 8-Chloro-1-(2-chloro-phenyl)-3-(3-furyl-methyl)-1,3-dihydro-imidazo[4,5-c]quinolin-2-one]
≤ 500 | N#Cc1nc2cnc3ccc(Cl)cc3c2n1-c1ccccc1Cl [Example 84, 8-Chloro-1-(2-chloro-phenyl)-1H-imidazo[4,5-c]quinoline-2-carbonitrile]
≤ 500 | Clc1ccc2ncc3ncn(-c4ccccc4Cl)c3c2c1 [Example 25, 8-Chloro-1-(2-chloro-phenyl)-1H-imidazo[4,5-c]quinoline]
500 to 1000 | O=c1[nH]c2cnc3ccc(Cl)cc3c2n1-c1ccccc1Cl [Example 92, 8-Chloro-1-(2-chloro-phenyl)-1,3-dihydro-imidazo[4,5-c]quinolin-2-one]
